In ChEMBL document CHEMBL5370642, “Synthesis and Bioevaluation of 3-(Arylmethylene)indole Derivatives: Discovery of a Novel ALK Modulator with Antiglioblastoma Activities” (J Med Chem, 2023):
Active and inactive are the calls of the source. The calls are words filed in the database; no cut-off is given here.

Experiments:
[1] = test system: U-87 MG; assay: Anti-proliferative activity against human U-87 MG cells assessed as cell viability incubated for 2 hrs by CCK8 assay; assay type: functional, cell-based, U-87MG ATCC
[2] = test system: GL261; assay: Anti-proliferative activity against mouse GL261 cells assessed as cell viability incubated for 2 hrs by CCK8 assay; assay type: functional, cell-based; details: GL261, 2 h
[3] = Half life in C57BL6/J mouse at 5 mg/kg, iv measured upto 24 hrs by LC-MS/MS analysis; assay type: ADME, organism-based; details: in vivo
[4] = Tmax in C57BL6/J mouse at 5 mg/kg, iv measured upto 24 hrs by LC-MS/MS analysis; assay type: ADME, organism-based; details: in vivo
[5] = Cmax in C57BL6/J mouse at 5 mg/kg, iv measured upto 24 hrs by LC-MS/MS analysis; assay type: ADME, organism-based; parameters: dose 5 mg/kg, time < 24 hrs, route iv; details: in vivo
[6] = AUC (0 to infinity) in C57BL6/J mouse at 5 mg/kg, iv measured upto 24 hrs by LC-MS/MS analysis; assay type: ADME, organism-based; parameters: dose 5 mg/kg, time < 24 hrs, route iv; details: in vivo
[7] = MRT (0 to 8hrs) in C57BL6/J mouse at 5 mg/kg, iv measured upto 24 hrs by LC-MS/MS analysis; assay type: ADME, organism-based; details: in vivo
[8] = MRT (0 to infinity) in C57BL6/J mouse at 5 mg/kg, iv measured upto 24 hrs by LC-MS/MS analysis; assay type: ADME, organism-based; details: in vivo
[9] = Apparent volume of distribution in C57BL6/J mouse at 5 mg/kg, iv measured upto 24 hrs by LC-MS/MS analysis; assay type: ADME, organism-based; details: in vivo, read-out: Vz
[10] = Half life in C57BL6/J mouse at 5 mg/kg, ip measured upto 24 hrs by LC-MS/MS analysis; assay type: ADME, organism-based; details: in vivo
[11] = Cmax in C57BL6/J mouse at 5 mg/kg, ip measured upto 24 hrs by LC-MS/MS analysis; assay type: ADME, organism-based; parameters: time < 24 hrs, dose 5 mg/kg, route ip; details: in vivo
[12] = AUC (0 to infinity) in C57BL6/J mouse at 5 mg/kg, ip measured upto 24 hrs by LC-MS/MS analysis; assay type: ADME, organism-based; parameters: time < 24 hrs, dose 5 mg/kg, route ip; details: in vivo
[13] = MRT (0 to 8hrs) in C57BL6/J mouse at 5 mg/kg, ip measured upto 24 hrs by LC-MS/MS analysis; assay type: ADME, organism-based; details: in vivo
[14] = MRT (0 to infinity) in C57BL6/J mouse at 5 mg/kg, ip measured upto 24 hrs by LC-MS/MS analysis; assay type: ADME, organism-based; details: in vivo
[15] = Drug uptake in C57BL6/J mouse brain at 20 mg/kg, ip measured after 2 hrs by LC-MS/MS analysis; assay type: ADME, organism-based; details: in vivo
[16] = test system: GL261; assay: Anti glioblastoma activity against mouse GL261-mNeonGreenLuc cells stereotaxically injected in corpus striatum of orthotopic glioblastoma mouse model assessed as inhibition of tumor growth at 5 mg/kg, ip once daily measured on day 21 by immunofluorescence imaging analysis; assay type: functional, organism-based
[17] = test system: GL261; assay: Anti glioblastoma activity against mouse GL261-mNeonGreenLuc cells stereotaxically injected in corpus striatum of orthotopic glioblastoma mouse model assessed as shrunken tumor tissue at 5 mg/kg, ip once daily measured on day 21 by H and E staining analysis; assay type: functional, organism-based
[18] = test system: GL261; assay: Anti-glioblastoma activity against mouse GL261-mNeonGreenLuc cells stereotaxically injected in corpus striatum of orthotopic glioblastoma mouse model assessed as decrease in Ki67 expression in GFP-labeled glioblastoma tissue at 5 mg/kg, ip once daily measured on day 21 by confocal microscopy; assay type: functional, organism-based
[19] = target: ALK tyrosine kinase receptor (Mus musculus) (UniProt P97793); assay: Binding affinity to ALK in mouse GL261 cell lysate assessed as increase in thermal stability of the protein measured after 4 hrs by […] based CETSA analysis; assay type: subcellular
[20] = test system: U-87 MG; assay: Anti-proliferative activity against human U-87 MG cells assessed as decrease in cell viability at 0.5 to 10 uM by CCK8 assay; assay type: functional, cell-based; details: U-87MG ATCC, dose 0.5-10 µM, time 24-72 hrs, TDE = time-dependent effect
[21] = test system: HeLa; assay: Anti-proliferative activity against human HeLa cells assessed as inhibition rate at 160 uM incubated for 24 to 72 hrs by CCK8 assay relative to control; assay type: functional; details: time 24-72 hrs
[22] = test system: GL261; assay: Induction of autophagy in mouse GL261 cells assessed as increase in LC3BII levels at 0.5 to 2 uM incubated for 24 hrs by Western blot analysis; assay type: functional, cell-based; details: dose 0.5-2 µM
[23] = test system: GL261; assay: Induction of autophagy in mouse GL261 cells assessed as decrease in mTOR phosphorylation at 0.5 to 2 uM incubated for 24 hrs by Western blot analysis; assay type: functional, cell-based; details: dose 0.5-2 µM
[24] = test system: GL261; assay: Induction of autophagy in mouse GL261 cells transfected with mRFP-GFPLC3 adenovirus assessed as yellow fluorescence pretreated with CQ for 30 mins followed by treated at 2 uM measured after 48 hrs by confocal microscopy; assay type: functional, cell-based
[25] = test system: GL261; assay: Induction of autophagy in mouse GL261 cells assessed as cell viability pretreated with 5 uM CQ for 4 hrs followed by treated at 0.5 to 2 uM measured after 48 hrs by CCK8 assay; assay type: functional, cell-based
[26] = test system: GL261; assay: Induction of apoptosis in mouse GL261 cells assessed as increase in annexin-V+/PI- cells at 0.5 to 2 uM by flow cytometry; assay type: functional, cell-based; details: dose 0.5-2 µM, time 24-72 hrs, TDE = time-dependent effect
[27] = test system: GL261; assay: Induction of apoptosis in mouse GL261 cells assessed as increase in annexin-V+/PI- cells incubated for 24 to 72 hrs by flow cytometry; assay type: functional, cell-based; details: dose 0.5-2 µM, time 24-72 hrs
[28] = test system: GL261; assay: Induction of mitochondrial membrane potential loss in mouse GL261 cells at 0.5 to 2 uM incubated for 24 hrs by JC-1 staining based flow cytometry assay; assay type: functional, cell-based; details: dose 0.5-2 µM
[29] = test system: GL261; assay: Induction of apoptosis in mouse GL261 cells assessed as increase in cleaved caspase 3 level measured at 0.5 to 2 uM after 24 hrs by Western blot analysis; assay type: functional, cell-based; details: dose 0.5-2 µM
[30] = test system: GL261; assay: In vivo induction of apoptosis in mouse GL261 cells transfected with mRFP-GFPLC3 adenovirus allografted in C57BL/6J mouse model assessed as increase in cleaved PARP level in tumor tissue at 2.5 to 5 mg/kg, ip by immunofluorescence assay; assay type: functional, organism-based; details: dose 2.5-5 mg/kg
[31] = test system: GL261; assay: In vivo induction of apoptosis in mouse GL261 cells transfected with mRFP-GFPLC3 adenovirus allografted in C57BL/6J mouse model assessed as increase in cleaved caspase 3 level in tumor tissue at 2.5 to 5 mg/kg, ip by immunofluorescence assay; assay type: functional, organism-based; details: dose 2.5-5 mg/kg
[32] = test system: GL261; assay: Induction of cell cycle arrest in mouse GL261 cells assessed as accumulation of cells at S phase at 0.5 to 2 uM incubated for 24 to 72 hrs by flow cytometry; assay type: functional; details: dose 0.5-2 µM, time 24-72 hrs
[33] = Bioavailability in C57BL6/J mouse at 5 mg/kg, […] measured upto 24 hrs by LC-MS/MS analysis; assay type: ADME, organism-based; details: in vivo
[34] = target: T1, ALK tyrosine kinase receptor (Homo sapiens, UniProt Q9UM73); details: U-87 MG, dose 0.5-2 µM, time 24.0 hrs
[35] = target: T1, ALK tyrosine kinase receptor; details: U-87 MG, dose 0.5-2 µM, time 24.0 hrs; remark: listed apart in the source
[36] = target: T1, ALK tyrosine kinase receptor; details: U-87 MG, dose 0.5-2 µM, time 24.0 hrs; remark: listed apart in the source

T1 sequence (Q9UM73 19-1620 limits assumed): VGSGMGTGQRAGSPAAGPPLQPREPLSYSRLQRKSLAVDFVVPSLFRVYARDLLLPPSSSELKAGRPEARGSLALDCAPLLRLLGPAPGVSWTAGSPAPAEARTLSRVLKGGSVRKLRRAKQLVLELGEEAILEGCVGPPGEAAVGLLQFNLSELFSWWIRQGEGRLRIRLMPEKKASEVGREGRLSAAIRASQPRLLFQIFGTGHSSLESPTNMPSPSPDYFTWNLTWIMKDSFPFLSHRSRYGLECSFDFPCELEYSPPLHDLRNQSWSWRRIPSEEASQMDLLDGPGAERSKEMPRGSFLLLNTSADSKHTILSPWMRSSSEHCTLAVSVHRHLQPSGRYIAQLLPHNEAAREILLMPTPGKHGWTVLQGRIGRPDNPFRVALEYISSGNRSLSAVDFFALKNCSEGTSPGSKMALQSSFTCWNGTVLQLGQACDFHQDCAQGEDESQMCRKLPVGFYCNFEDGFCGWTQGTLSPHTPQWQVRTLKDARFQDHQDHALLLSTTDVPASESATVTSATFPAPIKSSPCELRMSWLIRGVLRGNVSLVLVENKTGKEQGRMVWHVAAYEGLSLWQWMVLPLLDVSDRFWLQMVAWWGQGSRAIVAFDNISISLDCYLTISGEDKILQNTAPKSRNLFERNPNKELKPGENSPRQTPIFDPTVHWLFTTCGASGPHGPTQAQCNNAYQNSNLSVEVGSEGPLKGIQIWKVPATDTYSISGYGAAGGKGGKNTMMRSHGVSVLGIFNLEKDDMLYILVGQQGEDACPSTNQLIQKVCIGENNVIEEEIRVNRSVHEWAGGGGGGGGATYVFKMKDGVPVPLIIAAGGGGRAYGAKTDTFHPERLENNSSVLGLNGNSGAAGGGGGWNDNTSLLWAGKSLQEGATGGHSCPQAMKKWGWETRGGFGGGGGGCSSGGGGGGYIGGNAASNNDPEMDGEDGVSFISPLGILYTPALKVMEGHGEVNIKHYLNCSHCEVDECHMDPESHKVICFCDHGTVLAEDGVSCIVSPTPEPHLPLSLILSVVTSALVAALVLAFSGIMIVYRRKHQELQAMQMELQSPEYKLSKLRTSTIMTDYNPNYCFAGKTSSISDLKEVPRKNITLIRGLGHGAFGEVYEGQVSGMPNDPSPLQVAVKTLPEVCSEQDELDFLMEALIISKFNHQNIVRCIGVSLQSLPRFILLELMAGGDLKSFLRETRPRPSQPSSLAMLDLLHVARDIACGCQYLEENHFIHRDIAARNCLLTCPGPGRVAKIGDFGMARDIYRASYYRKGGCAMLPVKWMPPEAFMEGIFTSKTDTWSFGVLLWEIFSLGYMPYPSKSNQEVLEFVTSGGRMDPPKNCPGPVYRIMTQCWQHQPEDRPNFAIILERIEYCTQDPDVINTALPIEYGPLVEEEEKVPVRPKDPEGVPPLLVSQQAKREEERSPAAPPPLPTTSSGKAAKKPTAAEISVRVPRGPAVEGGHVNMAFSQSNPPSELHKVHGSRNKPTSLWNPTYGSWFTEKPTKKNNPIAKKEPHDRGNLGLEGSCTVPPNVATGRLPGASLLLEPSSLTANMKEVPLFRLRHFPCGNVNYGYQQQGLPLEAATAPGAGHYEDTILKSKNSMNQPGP
Sequence of ALK tyrosine kinase receptor (Mus musculus) (P97793 whole entry): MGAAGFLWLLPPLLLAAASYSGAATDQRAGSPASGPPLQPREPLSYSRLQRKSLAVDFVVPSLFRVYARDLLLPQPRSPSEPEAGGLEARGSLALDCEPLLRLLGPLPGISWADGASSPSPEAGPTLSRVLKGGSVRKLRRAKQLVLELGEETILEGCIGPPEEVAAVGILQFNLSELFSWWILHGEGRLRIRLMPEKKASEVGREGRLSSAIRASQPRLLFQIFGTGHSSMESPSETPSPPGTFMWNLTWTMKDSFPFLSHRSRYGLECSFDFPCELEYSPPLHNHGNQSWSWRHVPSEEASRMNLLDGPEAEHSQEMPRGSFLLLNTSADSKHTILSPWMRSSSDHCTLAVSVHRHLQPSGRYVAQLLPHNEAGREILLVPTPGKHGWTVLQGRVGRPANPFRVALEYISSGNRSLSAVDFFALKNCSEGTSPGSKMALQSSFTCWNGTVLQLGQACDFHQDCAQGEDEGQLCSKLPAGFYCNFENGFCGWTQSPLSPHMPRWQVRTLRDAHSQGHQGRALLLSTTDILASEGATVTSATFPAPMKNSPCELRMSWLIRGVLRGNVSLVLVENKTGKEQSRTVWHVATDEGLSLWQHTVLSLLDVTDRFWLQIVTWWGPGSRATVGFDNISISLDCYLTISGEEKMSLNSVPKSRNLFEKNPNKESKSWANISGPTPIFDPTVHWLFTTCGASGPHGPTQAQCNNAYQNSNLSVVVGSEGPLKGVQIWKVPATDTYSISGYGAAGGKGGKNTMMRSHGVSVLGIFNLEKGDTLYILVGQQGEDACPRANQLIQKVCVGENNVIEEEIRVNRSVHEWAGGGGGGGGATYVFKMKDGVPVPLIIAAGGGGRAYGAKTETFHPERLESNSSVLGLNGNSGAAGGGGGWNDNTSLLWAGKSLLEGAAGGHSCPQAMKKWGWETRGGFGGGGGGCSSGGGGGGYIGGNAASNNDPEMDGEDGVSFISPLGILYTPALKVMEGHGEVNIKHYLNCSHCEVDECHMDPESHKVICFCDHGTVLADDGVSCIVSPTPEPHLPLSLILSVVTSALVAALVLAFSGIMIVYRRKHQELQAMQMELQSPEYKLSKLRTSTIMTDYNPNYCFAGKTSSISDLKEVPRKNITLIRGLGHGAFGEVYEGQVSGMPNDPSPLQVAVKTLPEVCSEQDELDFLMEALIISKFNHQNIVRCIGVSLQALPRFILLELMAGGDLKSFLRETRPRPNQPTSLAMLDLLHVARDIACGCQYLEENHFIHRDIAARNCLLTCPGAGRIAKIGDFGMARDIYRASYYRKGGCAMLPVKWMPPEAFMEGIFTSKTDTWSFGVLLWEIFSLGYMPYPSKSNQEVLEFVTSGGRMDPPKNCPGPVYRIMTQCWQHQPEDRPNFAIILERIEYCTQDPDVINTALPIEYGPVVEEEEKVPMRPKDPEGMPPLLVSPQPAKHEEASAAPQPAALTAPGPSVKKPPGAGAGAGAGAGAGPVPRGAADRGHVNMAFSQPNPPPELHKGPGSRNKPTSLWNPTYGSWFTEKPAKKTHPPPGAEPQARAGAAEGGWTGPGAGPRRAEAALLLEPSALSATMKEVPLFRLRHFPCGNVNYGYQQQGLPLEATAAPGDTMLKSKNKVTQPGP

Question: What does the source list for `Cc1ccc(S(=O)(=O)n2cc(Cc3cc(C)c(O)c(C)c3)c3ccccc32)cc1`?
Answer: IC50 [1]: 7.25 µM; IC50 [2]: 1.35 µM; half-life [3]: 1.13 h; Tmax [4]: 4.8 min; Cmax [5]: 1980 ng/mL; AUC(0-inf) [6]: 925 ng·h/mL; MRT last at 24 h [7]: 0.63 h; MRT inf [8]: 0.84 h; Vd [9]: 8.89 L/kg; half-life [10]: 3.55 h; Cmax [11]: 118 ng/mL; AUC(0-inf) [12]: 420 ng·h/mL; MRT last at 24 h [13]: 2.25 h; MRT inf [14]: 4.6 h; Drug uptake [15]: 2.7 µmol/kg; inhibition [16]: Active; Activity [17]: Active; Activity [18]: Active; Activity [19]: Active; Activity [20]: Tde; inhibition at 160 µM [21]: 50%; Activity [22]: Active; Activity [23]: Active; Activity [24]: inactive; Activity [25]: inactive; Activity [26]: Tde; Activity [27]: Dose-Dependent Effect; Activity [28]: Active; Activity [29]: Active; Activity [30]: Active; Activity [31]: Active; Activity [32]: 24.5%; bioavailability [33]: 38.4%; inhibition [34]: Active; inhibition [35]: Active; inhibition [36]: Active
